Test results: US20250188044A1 (HARBIN MEDISAN PHARMACEUTICAL CO., LTD., priority 2021, published 2025)
Entries after “also recorded” stand apart in the source; their conditions may differ.

How the values were obtained:
NASH model mice = experiment: CDAA-induced NASH mouse model; assay type: in vivo, C57 mice
HepG2 cells = experiment: Lipid metabolism-associated gene expression of HepG2 cells (qPCR); assay type: cell-based, human; details: 8 nM, nM, and 200 nM, 12 h, vs. blank control (FIGS. 1 and 2)
Method: HepG2 cells (human hepatoma cells) were cultured in a 6-well cell culture plate and subjected to adherent culture overnight. […] The old medium was discarded and replaced with drug-containing medium of different concentrations (complete medium without the compound for the blank control group). After dosing, the cells were incubated for 12 h. The medium was discarded and total RNA was extracted by the phenol-chloroform method. After reverse transcription, the real-time quantitative fluorescent PCR experiment (RNA extraction, reverse transcription, quantitative PCR reagents were all purchased from Nanjing Vazyme Biotech Co., Ltd.) was performed using ACTB as an internal reference, and the expression of PDK4, ACADVL, and CPT1A, which are important genes in oxidative metabolism of lipids, was detected according to the steps in the product instructions (the primer sequences are shown in Table 7). […] Some other compounds of the present invention also have similar activity.

[1] = Metabolic stability in human liver microsomes; assay type: in vitro ADME
Method: A 500 μM solution of the compound in acetonitrile was prepared and diluted to obtain a 1.5 μM drug working solution with a 0.1 M potassium phosphate solution. The drug working solution was co-incubated with a human liver microsome working solution at a final concentration of 0.75 mg/mL and an NADPH solution (final concentration: 550 μM), and the incubation was terminated by adding an acetonitrile solution at 0 min, 15 min, 30 min, 45 min, and 60 min. The residual amount of the compound that remained in the system at each time point was detected by using LC/MS. The absolute value k of the slope was determined by plotting the natural logarithm of the percentage of the residual amount of the compound with the time, and the calculation was performed according to the formula: T1/2 (half-life)=ln2/k=0.693/k.

[2] = Pharmacokinetic evaluation in rats; assay type: in vivo, SD rats
Method: Animals: 6 male SD rats, SPF grade, sourced from the animal repository of Shanghai Medicilon research institution.
The dose in the oral administration group was 10 mpk, and the dose in the intravenous injection group was 2 mpk.
All samples were centrifuged at 18,000 g for 7 min in a low-temperature centrifuge, and plasma was isolated. The content of the compound in the plasma was determined by LC-MS/MS-18, and relevant pharmacokinetic parameters were calculated from the plasma concentration data at different time points.

[3] = system: liver fibrosis model mice; experiment: Carbon tetrachloride-induced liver fibrosis mouse model; assay type: in vivo, C57 mice
Method: Animals: 60 male C57 mice, SPF grade, 8 weeks old, weighing about 20 g, purchased from Beijing Vital River Laboratory Animal Technology Co., Ltd. All animals were kept on a 12-h alternating circadian rhythm and were fed ad libitum.
Reagent: positive drug IVA337 (Pan-PPAR agonist, currently in an anti-NASH phase II clinical trial), which was prepared according to the method in the literature (J. Med. Chem., 2018, 61, 2246); carbon tetrachloride (purchased from Shanghai Aladdin Biochemical Technology Co., Ltd.), and sunflower seed oil (purchased from Shanghai Yuanye Biotech Co., Ltd.).
. Mice were given food and water normally and subjected to modeling for 3 weeks. The model group and the administration groups were each injected twice a week with a 25% CCl4 oil solution at a dose of 2 mL/kg, and the control group was injected with an oil solvent at the same volume.
. The administration was performed for 3 weeks, and the mice were given food and water normally. The mice in each group were weighed daily, and their body weight, hair, feces, and activity were carefully observed and recorded.
At 30 h after the sixth injection of CCl4, the mice were dissected for the samples. Blood was taken from the orbit, and then the liver was taken after the mice were sacrificed. The right lobular tissue of liver was fixed with 4% paraformaldehyde and used for HE staining of sections.
The pretreated tissues were sent to ServiceBio Biotechnology Co., Ltd. to make HE stained sections and Sirius red stained sections.
The liver tissue stored at −80° C. was taken out and placed in liquid nitrogen, about 10 mg of liver tissue was rapidly cut off, homogenized with a homogenizer after about 500 μL of precooled tissue lysis buffer was added, and then lysed on ice for 30 min. The lysate was centrifuged at 12,000 rpm for 15 min at 4° C., and 170 μL of supernatant was added to a clean EP tube, from which 10 μL of supernatant was taken for BCA protein quantification. 40 μL of 5*loading buffer was added to the rest of protein supernatant for boiling for denaturation, followed by SDS-PAGE electrophoresis, and the protein was transferred onto a PVDF membrane for incubation and elution of related antibodies. Finally, imaging analysis was performed by using a chemiluminescence apparatus.
The liver tissue stored at −80° C. was taken out and placed in liquid nitrogen, about 200 mg of the liver tissue was rapidly cut off, and hydroxyproline in the liver tissue was detected according to the method in the product instructions (Beijing Solarbio Science & Technology Co., Ltd., BC0255).

[4] = system: nuclear receptors other than PPAR (RARα, RARγ, RARβ, FXR, RXRα, RXRγ, RXRβ, VDR, LXRα, LXRβ, THβ, PXR, CAR); experiment: Nuclear receptor selectivity, Gal4-LBD reporter gene assays in Cos-7 cells; assay type: cell-based, human; details: 1 μM, relative agonistic rate (FIG. 16)
[5] = system: PPARα/δ downstream target gene; details: mice, 10 mg/kg intragastric, four consecutive days (FIG. 15)
[6] = system: nonalcoholic steatohepatitis (NASH); details: NCT02704403; cited from earlier work

Cc1cc(Cn2ncn(-c3ccc(OC(F)(F)F)cc3)c2=O)cc(C)c1OC(C)(C)C(=O)O [Compound 61, 2-(2,6-Dimethyl-4-((5-oxo-4-(4-(trifluoromethoxy)phenyl)-4,5-dihydro-1H-1,2,4-triazo 1-1-yl)methyl)phenoxy)-2-methylpropionic acid]
anti-NASH efficacy compared with GFT505 and IVA337 at the same dose (NASH model mice; NASH model mice, 10 mg/kg intragastric daily, 6 weeks, 10 mg/kg): stronger liver enzyme-lowering effect than GFT505 and IVA337 at the same dose; also recorded: stronger effect in resisting liver inflammation than GFT505 and IVA337; also recorded: stronger effect in resisting liver fibrosis than GFT505 and IVA337; also recorded: better effect than GFT505 and IVA337 at the same dose; also recorded: better efficacy than positive control drugs GFT505 and IVA337 at the same dose; also recorded: better anti-NASH efficacy than clinically investigational PPAR agonists GFT505 and IVA337 at the same dose | liver mRNA expression levels of Tnf, IIIb, Ccl4, and Adgre1 (NASH model mice; NASH model mice, 3, 10, 30 mg/kg intragastric daily, 6 weeks (FIG. 6)): inhibit the increase of mRNA expression levels of Tnf, IIIb, Ccl4, and Adgre1 due to modeling in a dose-dependent manner | liver mRNA expression levels of Acta2, Tgfb1, Collal, and Col3a1 (NASH model mice; NASH model mice, 3, 10, 30 mg/kg intragastric daily, 6 weeks (FIG. 7)): significantly inhibit the increase of mRNA expression levels of Acta2, Tgfb1, Collal, and Col3a1 due to modeling | levels of ALT and AST in serum (NASH model mice; NASH model mice, 3, 10, 30 mg/kg intragastric daily, 6 weeks (FIGS. 4 and 5)): down-regulate the levels of ALT and AST in serum of NASH model mice in a dose-dependent manner | HE staining: infiltration of inflammatory cells in the portal area (NASH model mice; NASH model mice, liver sections (FIG. 8)): reduce the infiltration of inflammatory cells in the portal area due to modeling in a dose-dependent manner | Sirius red staining: collagen deposition (NASH model mice; NASH model mice, liver sections (FIG. 9)): reduce collagen deposition due to modeling in a dose-dependent manner | Oil red staining: lipid accumulation (NASH model mice; NASH model mice, liver sections (FIG. 10)): reduce lipid accumulation due to modeling in a dose-dependent manner | expression of PDK4, ACADVL, and CPT1A (HepG2 cells): improve the expression of PDK4, ACADVL, and CPT1A in a dose-dependent manner with significance | metabolic stability in human liver microsomes (in words) ([1]; human liver microsomes): very good metabolic stability in human liver microsomes | half-life ([1]; human liver microsomes 0.75 mg/mL, NADPH, 0-60 min): > 120 min | Time-to-peak Tmax ([2]; intravenous injection, 2 mpk): 4.8 ± 0 min | Bioavailability F ([2]; oral administration, 10 mpk): 86.35% | Time-to-peak Tmax ([2]; oral administration, 10 mpk): 85.2 ± 60.6 min | anti-liver fibrosis efficacy compared with IVA337 at the same dose ([3]; CCl4 liver fibrosis model mice, 10 mg/kg intragastric daily, 3 weeks, 10 mg/kg): stronger effect than IVA337 at the same dose; also recorded: better effect than IVA337 at the same dose; also recorded: better efficacy than a positive control drug IVA337 at the same dose | hepatic hydroxyproline level ([3]; CCl4 liver fibrosis model mice, 3, 10, 30 mg/kg intragastric daily, 3 weeks (FIG. 11)): down-regulate the hepatic hydroxyproline level of liver fibrosis model mice in a dose-dependent manner | αSMA and Collal protein levels in liver ([3]; CCl4 liver fibrosis model mice, Western blot (FIG. 12)): inhibit the increase of αSMA and Collal protein levels due to modeling in a dose-dependent manner | HE staining: infiltration of inflammatory cells in the portal area ([3]; CCl4 liver fibrosis model mice, liver sections (FIG. 13)): reduce the infiltration of inflammatory cells in the portal area due to modeling in a dose-dependent manner | Sirius red staining: collagen deposition ([3]; CCl4 liver fibrosis model mice, liver sections (FIG. 14)): reduce collagen deposition due to modeling in a dose-dependent manner | agonistic effect on nuclear receptors other than PPAR [4]: no significant agonistic effect on nuclear receptors other than PPAR | target genes significantly upregulated in the skeletal muscle [5]: 16

CSc1ccc(C(=O)/C=C/c2cc(C)c(OC(C)(C)C(=O)O)c(C)c2)cc1 [GFT505, Elafibranor]
efficacy in anti-NASH phase III clinical trial, interim analysis [6]: substantially ineffective
